These results are taken from paper PMC3365588 (Structure(London, England:1993), 2009).

The test system of assay [1] is RNase H cleavage by HIV-1 RT. The conditions noted are these: cited from earlier work.
Assay [2] deals with T1, HIV-1 RT (Human immunodeficiency virus type 1 group M subtype B, UniProt P03366). The experiment in a line: Direct binding assay using surface plasmon resonance. As to conditions: for Kd: KD^SPR.
Assay [3] concerns the target T1, HIV-1 RT. The experiment in a line: Direct binding assay using intrinsic protein fluorescence. The conditions noted are these: KD^fluor.
For assay [4], the system named is E. coli RNase H. As to conditions: cited from earlier work.
In assay [5] the test system is HIV-1 integrase. The experiment in a line: Inhibition of HIV-1 integrase. The class given is biochemical. The conditions noted are these: data not shown.
The test system of assay [6] is RNH activity of HIV-1. As to conditions: read-out: IC50, inhibition of RNH activity; previously reported; cited from earlier work.
For assay [7], the system named is HIV-1 RT with benzoyl-L-phenylalanine in place of Tyr501. As to conditions: cited from earlier work.
The mark [8] stands for this setting: Enzyme + MgCl2, free enzyme (no substrate).

`CC(C)c1ccc(O)c(=O)c(O)c1` [β-thujaplicinol, 2,7-dihydroxy-4-(propan-2-yl)-cyclohepta-2,4,6-trien-1-one]: in assay [1], the “Inhibition of polymerase-independent secondary cuts in the RNA strand” value is recorded as “inhibits polymerase-independent “secondary cuts””. The “Inhibition of RNase H cleavage with pre-formed Enzyme·Substrate complex” value in assay [1] (pre-steady state conditions, ref Bielhartz et al) is recorded as “unable to inhibit RNase H cleavage”. Moreover, the “Inhibition of polymerase dependent cleavage” value in assay [1] (ref Bielhartz et al) is “not an inhibitor of polymerase dependent cleavage”. The figures for the half-maximal inhibitory concentration (IC50) in assay [2] and in assay [6] were greater than 100 µM and 0.21 µM, respectively. Moreover, the Kd in assay [2] (setting [8]) is 6 ± 1 µM; in assay [2] (Enzyme, no metal (MgCl2 omitted, EDTA added)), greater than 100 µM; in assay [3] (Enzyme + MgCl2 + ds RNA (non-hydrolyzable substrate analog)), 0.185 ± 0.008 µM; in assay [3] (setting [8]), 1 µM. Further, the “Fold difference of IC50, RNH of HIV-1 RT vs E. coli RNase H” value in assay [4] is listed as roughly 300 fold. The “Fold difference of IC50, RNH of HIV-1 RT vs HIV-1 integrase” value in assay [5] is recorded as “over 10 fold”. Besides, in assay [7], the “Effect of substituting benzoyl-L-phenylalanine for Tyr501 on inhibition” value is reported as “conferred resistance to inhibition”.
As to `CC(C)c1ccccc(=O)c1O` [α-thujaplicin], the IC50 in assay [6] is 50 µM.
